In paper PMC5412445, “ZeGlobalTox: An Innovative Approach to Address Organ Drug Toxicity Using Zebrafish” (International Journal of Molecular Sciences, 2017):
“Also recorded” adds a separate entry of the source. Structures can show the parent of a compound that is named as a salt.

How the values were obtained:
humans = settings: known toxicity in humans, ref TOXNET (HSDB), Side effects (EMBL), drugs.com, cited from earlier work; for Neurotoxicity (toxicity in humans): [22],[30],[31],[34],[35]; for Cardiotoxicity (toxicity in humans) / Hepatotoxicity (toxicity in humans): ema.europa; for Cardiotoxicity (toxicity in humans): [19],[20],[21]; for Hepatotoxicity (toxicity in humans): [24],[26],[27],[32],[33]
zebrafish larvae [1] = test: ZeGlobalTox neurotoxicity evaluation (locomotion, light/dark trial); assay type: in vivo, zebrafish (Danio rerio); settings: 120 hpf, drug from 96 hpf at NOEC (MPTP 100 µM, paracetamol 2600 µM)
Method: By 5 dpf, zebrafish larvae perform spontaneous swimming and their visual system is fully developed. Therefore, behavioural experiments were performed from this time point (Figure 4A). Deviations in total distance moved, in response to photo-visual stimulation, were analysed as a direct measurement of neurotoxicity. Thus, drugs increasing or decreasing total distance moved when compared to the DMSO-only group were considered neurotoxic. As the positive neurotoxic control we used MPTP, which has been identified as a neurotoxic drug in humans and zebrafish.
Immediately after heart video acquisition, larvae are washed with E3 medium to remove tricaine methanesulfonate from the solution. Fresh drug solution is added and the larvae are transferred individually in a volume of 150 µL to 96 well plates.
Neurotoxicity is analysed at 120 hpf by locomotion assessment using the EthoVision XT 11.5 software and the DanioVision device from Noldus Information Technologies, Wageningen, The Netherlands. This closed system consists of a camera placed above a chamber with circulating water and a temperature sensor set at 28 °C. The 96-well plates are placed in the chamber, which can then be illuminated with white light using the software. Larvae are then left for 20 min under these conditions and with the lights on to help their acclimation. Finally, larvae locomotion is measured during 50′ under the following light/dark conditions: 10′ darkness-10′ Light-10′ darkness-10′ Light-10′ darkness. Total distance moved (in mm) is acquired under this light/dark trial. Due to circadian rhythms, all locomotion assays were performed from 13:00 pm onwards to ensure steady activity of the zebrafish.
Neurotoxicity is assessed by comparing locomotion differences among the tested compounds (solved in DMSO) and the negative control group (DMSO 1%-only).

[2] = system: wild type zebrafish embryos; test: in vivo; assay type: in vivo; settings: embryos incubated 3 to 96 hpf; 5 logarithmic concentrations 0.1 µM to 1 mM; 1% DMSO
Excerpt: (§1) Several issues were considered when planning the experimental protocol. The main concern was that drug-induced mortality and/or developmental toxicity (teratogenicity) could mask possible organ-toxicities appearing later in development. […] This preliminary assay allowed for the identification of non-mortal/non-teratogenic concentrations—no observed effect concentration (NOEC)—to use in the following assays. The hypothesis is that NOEC could affect organ physiology (organ toxicity), while uncoupled from putative developmental toxicity side-effects affecting organ development or function. Another consideration was to start drug incubations at 96 hours post fertilization (hpf), when the analysed organs are close to or already developed (Figure 1B). The overall aim is to understand the drug impact on organ physiology and function rather than early embryogenesis. The third consideration was to organize the sequential organ evaluation during the experimental and drug incubation time.
(§2) 1% DMSO, which is the constant solvent concentration in all conditions, was used as the negative control.
(§3) Thus, 20 wild type (wt) zebrafish embryos per condition were incubated with tested compounds from 3 to 96 hpf. The test was performed in 5 logarithmic concentrations per drug (from 0.1 µM to 1 mM). Each larva was analysed for mortality, body deformity, edema, tail detachment, pigmentation, heart activity, heart edema, and motor activity. […] DMSO 1% was used as the negative control in all experiments.

in vivo = assay type: in vivo; settings: zebrafish, in vivo; mortality; embryos incubated 3 to 96 hpf; 5 logarithmic concentrations 0.1 µM to 1 mM; 1% DMSO
Excerpt: as §1, §2, §3

zebrafish larvae heart = test: ZeGlobalTox cardiotoxicity evaluation (heart video, ZeCardio software); assay type: in vivo, zebrafish (Danio rerio); settings: 100 hpf, 4 h after drug incubation at NOEC (haloperidol 10 µM)
Method: Four cardiac parameters were evaluated to assess whether a compound was cardiotoxic: heart rate (beats per minute, BPM), QTc prolongation, ejection fraction (EJF), and cardiac arrest. […] 1% DMSO was used as the negative control.
Cardiotoxicity evaluation was performed from 96 hpf, when the zebrafish heartbeat is already stabilised, so the analysis might not be altered by unstable beating. Zebrafish hearts were video-recorded at 4 h after drug incubation (100 hpf) and analysed using the ZeCardio® β software (Figure 3A).
After 4 h of drug incubation (100 hpf), zebrafish larvae were anesthetized by immersion in […] tricaine methanesulfonate (A4050, Sigma-Aldrich, Saint Louis, MO, USA)/E3 solution. […] The 1% DMSO treated embryos were used as negative cardiotoxic controls. Embryos were positioned in an agarose based mold to allow their appropriate orientation under the fluorescence stereo microscope (Olympus MVX10). Individual fluorescent hearts were recorded during 60 s each (Figure 6A). Videos were acquired with a high-speed recording camera (Hamamatsu C11440 ORCA-flash 2.8) and analysed with the ZeCardio® β software to extract different cardiac parameters—heart rate, cardiac arrest, QTc prolongation, and Ejection Fraction (EJF) (Figure 6B).
ZeCardio® β software, developed by ZeClinics and currently in β status, provides a graphical user interface (GUI) that facilitates the semi-automatic analysis of living heart videos. Interactive analysis of the different parameters functions as follows: The user draws a line along the heart axis, from ventricle to atrium, to initiate the calculation. […] All lines can be subjected to modification of their angles and lengths.
Heart beat frequency for each chamber is detected and frequencies are presented in the GUI as a mean. A plot distribution is used for assessing beat stability over time (Figure 6F). In the same fashion, chamber specific cardiac arrest is measured as the longest beating pause (Figure 6H). No beating chambers and/or incorrect bpm can be manually flagged when detected.
For calculation of the QTc interval (linearly corrected QT interval), the Framingham formula (QTc = QT + 0.154 (1 − RR)) was adjusted for zebrafish as QTc = QT + 0.154 (2.66 − RR). RR = 6.6 ms/measured bpm is applied (Figure 6G). Finally, the Ejection Fraction, calculated as the maximal dilatation (the diastolic diameter, DD) versus the maximal contraction (systolic diameter, SD) is measured in % as EF% = (DD − SD)/DD*100 (Figure 6G). Computed values for the described parameters were exported in .csv format (Figure 6H).

zebrafish larvae liver = test: ZeGlobalTox hepatotoxicity: Oil Red O staining (steatosis and yolk lipid accumulation); settings: 132 hpf; for Percentage of larvae presenting steatosis: 36 h drug incubation at NOEC (EtOH 2%, MPTP 100 µM), DMSO 24.44%
Method: In order to assess drugs producing steatosis and yolk lipid accumulation, and subsequent to the RFP filtered images being acquired, zebrafish larvae were stained with Oil Red O. Larvae and were sorted into steatosis positive or negative, yolk lipid accumulation, or both (see materials and methods).
For the ZeGlobalTox assay, fertilized Tg(cmlc2:GFP; fabp10:RFP; ela31:EGFP) zebrafish embryos were collected in E3 medium (5 mM NaCl, 0.17 mM KCl, 0.33 mM CaCl2, 0.33 mM, MgSO4) in Petri dishes. At 3, 24, and 48 hpf, dishes were observed and all not fertilized, abnormal, or coagulated eggs were discarded. At 96 hpf, 20 larvae per condition were incubated with the NOECs from the different drugs and allowed to develop until 132 hpf at 28.5 °C.
After 36 h of drug incubation (132 hpf), embryos are fixed in 4% paraformaldehyde (158127-500G, Sigma-Aldrich, Saint Louis, MO, USA) for 2–4 h at room temperature (RT) and then are 3× washed with PBS.
In order to detect the presence of steatosis and yolk lipid retention, zebrafish larvae were stained with Oil Red O (O0625-25G, Sigma-Aldrich, Saint Louis, MO, USA) as described in [77]. Briefly, the skin pigment from fixed larvae is removed by incubating with bleaching solution (for 10 mL: 6 mL H2O, 0.25 mL 20× SSC, 0.5 mL formamide, 3.3 mL H2O2) during 20 min at RT. Then, the larvae are 5× washed with PBS. Bleached embryos are first submerged in 85% Propylene glycol (PG) (134368-1L, Sigma-Aldrich, Saint Louis, MO, USA) for 10 min and then in 100% PG for another 10 min before staining them with Oil Red O 0.5% in 100% PG (overnight, at RT and with gentle rocking). Oil Red O stained embryos are washed in 100% PG for 30 min, 50 min in 85% PG, and 40 min in 85% PG with an equal volume of PBS. Finally, embryos are washed 1× with PBS before adding 80% glycerol (G7757-500ML, Sigma-Aldrich, Saint Louis, MO, USA). Bright field images are taken to detect both steatosis and yolk lipid accumulation. […] Yolk lipid retention is considered positive when a red strong signal is observed in the yolk area (Figure 5F).
DMSO 1% treated larvae were used as the negative control group.

zebrafish larvae [3] = system: zebrafish larvae; parameters: method as in PMID 16408054, PMID 22744888; settings: ref [50],[57]; cited from earlier work

| SMILES | Neurotoxicity (toxicity in humans) (humans) | Cardiotoxicity (toxicity in humans) (humans) | Hepatotoxicity (toxicity in humans) (humans) | Motility (total distance moved) compared to DMSO (zebrafish larvae [1]) | 96 hpf LOEC [2] [µM] | LC50 (in vivo) [µM] | Heart rate (beats per minute) compared to DMSO-only (zebrafish larvae heart) | Longest cardiac arrest compared to DMSO-only (zebrafish larvae heart) | QTc interval compared to DMSO-only (zebrafish larvae heart) | Percentage of larvae presenting steatosis (zebrafish larvae liver) [%] | 96 hpf NOEC [2] [µM] | Impact on the heart rate in zebrafish larvae (zebrafish larvae [3]) | Percentage of larvae presenting yolk lipid retention (zebrafish larvae liver; 36 h drug incubation at NOEC (paracetamol 2600 µM), DMSO 22.22%) [%] |
| --- | --- | --- | --- | --- | --- | --- | --- | --- | --- | --- | --- | --- | --- |
| CC(C)NCC(O)COc1cccc2[nH]ccc12 (stereo not drawn) [Pindolol, pindolol] | Toxic ^2,3 | Toxic ^1,2,3 | Safe | increased motility | 1000 | > 1000 | decreased the heart rate | Longer cardiac arrest | QTc interval prolongation; also recorded: increased QTc |  |  |  |  |
| CC[C@]1(O)C[C@H]2CN(CCc3c([nH]c4ccccc34)[C@@](C(=O)OC)(c3cc4c(cc3OC)N(C=O)[C@H]3[C@@](O)(C(=O)OC)[C@H](OC(C)=O)[C@]5(CC)C=CCN6CC[C@]43[C@@H]65)C2)C1 [Vincristine, vincristine] | Toxic ^1,2,3 | Toxic ^1,2,3 | Safe | increased motility | 100 | 31.6 | decreased the heart rate | Longer cardiac arrest |  |  |  |  |  |
| CNCC(O)c1ccc(O)c(O)c1.Cl (racemic) [(±)-Epinephrine HCL, (±)-epinephrine hydrochloride] | Toxic ^1,2,3 | Toxic ^1,2,3 | Safe | increased motility |  |  |  |  |  | 80 | 1000.00 |  |  |
| CC(=O)Nc1ccc(O)cc1 [Acetaminophen] | Toxic ^2,3 | Toxic ^1,2,3 | Toxic ^1,2,3 [24] | Decreased motility |  |  |  |  |  |  |  | no impact | 60 |
| CN1CCN(CCCN2c3ccccc3Sc3ccc(C(F)(F)F)cc32)CC1 [Trifluoperazine HCL, trifluoperazine hydrochloride] | Toxic ^1,2,3 | Toxic ^1,2,3 | Toxic ^1,2,3 | Decreased motility | 100 | 31.6 | decreased the heart rate | Longer cardiac arrest |  | 85 | 10 |  |  |
| CN1CC=C(c2ccccc2)CC1 [MPTP, 1-methyl-4-phenyl-1,2,3,6-tetrahydropyridine] | Toxic [22, 30, 31] |  |  | Decreased motility |  |  |  |  |  | 50 |  |  |  |
